According to ChEMBL document CHEMBL1909046, “DrugMatrix in vitro pharmacology data”:

Columns and labels:
[1] = biological target: Sodium-dependent dopamine transporter (Homo sapiens, UniProt Q01959); test: DRUGMATRIX: Dopamine Transporter radioligand binding (ligand: [125I] RTI-55); assay type: cell membranes, CHO-K1, Membrane; conditions: cho-k1; Not Active = under 50% inhibition at 10 µM
[2] = biological target: T1, Alpha-2C adrenergic receptor (Homo sapiens, UniProt P18825); test: DRUGMATRIX: Adrenergic Alpha-2C radioligand binding (ligand: [3H] MK-912); assay type: cell membranes, Sf9, Membrane
T1 sequence (P18825 whole entry): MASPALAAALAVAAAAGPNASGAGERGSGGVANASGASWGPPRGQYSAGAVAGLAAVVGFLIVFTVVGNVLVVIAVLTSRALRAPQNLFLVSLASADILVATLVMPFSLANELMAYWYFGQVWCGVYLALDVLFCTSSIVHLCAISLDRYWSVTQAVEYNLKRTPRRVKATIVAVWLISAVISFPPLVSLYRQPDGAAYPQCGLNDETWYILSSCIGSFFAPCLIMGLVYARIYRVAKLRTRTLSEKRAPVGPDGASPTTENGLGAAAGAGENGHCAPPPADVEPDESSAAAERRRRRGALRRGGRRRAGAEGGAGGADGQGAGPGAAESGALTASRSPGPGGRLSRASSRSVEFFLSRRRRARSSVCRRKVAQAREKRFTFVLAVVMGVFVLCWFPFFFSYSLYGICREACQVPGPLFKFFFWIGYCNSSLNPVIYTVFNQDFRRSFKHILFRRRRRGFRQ

[3] = biological target: T2, Alpha-1D adrenergic receptor (Homo sapiens, UniProt P25100); assay type: cell membranes, HEK293, Membrane; further: in other assays of this panel Not Active means under 50% inhibition at 10 µM
T2 sequence (P25100 whole entry): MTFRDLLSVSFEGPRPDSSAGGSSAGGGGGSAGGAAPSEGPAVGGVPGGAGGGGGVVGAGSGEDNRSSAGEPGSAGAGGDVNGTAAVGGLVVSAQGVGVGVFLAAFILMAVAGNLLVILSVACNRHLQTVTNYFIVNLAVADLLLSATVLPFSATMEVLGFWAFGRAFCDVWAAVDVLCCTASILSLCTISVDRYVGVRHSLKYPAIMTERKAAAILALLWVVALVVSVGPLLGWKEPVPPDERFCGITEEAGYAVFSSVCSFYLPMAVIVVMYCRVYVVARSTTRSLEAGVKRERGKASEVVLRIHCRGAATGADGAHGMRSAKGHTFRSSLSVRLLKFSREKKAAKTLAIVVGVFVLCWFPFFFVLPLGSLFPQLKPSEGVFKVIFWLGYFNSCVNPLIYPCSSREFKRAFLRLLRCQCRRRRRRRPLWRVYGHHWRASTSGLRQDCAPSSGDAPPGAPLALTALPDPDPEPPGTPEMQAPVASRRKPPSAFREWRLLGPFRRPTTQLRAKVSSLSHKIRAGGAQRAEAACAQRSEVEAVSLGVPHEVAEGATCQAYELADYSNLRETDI

Substance-K receptor = biological target: T3, Substance-K receptor (Homo sapiens, UniProt P21452); assay type: cell membranes, CHO, Membrane; conditions: cho; further: in other assays of this panel Not Active means under 50% inhibition at 10 µM
T3 sequence (P21452 whole entry): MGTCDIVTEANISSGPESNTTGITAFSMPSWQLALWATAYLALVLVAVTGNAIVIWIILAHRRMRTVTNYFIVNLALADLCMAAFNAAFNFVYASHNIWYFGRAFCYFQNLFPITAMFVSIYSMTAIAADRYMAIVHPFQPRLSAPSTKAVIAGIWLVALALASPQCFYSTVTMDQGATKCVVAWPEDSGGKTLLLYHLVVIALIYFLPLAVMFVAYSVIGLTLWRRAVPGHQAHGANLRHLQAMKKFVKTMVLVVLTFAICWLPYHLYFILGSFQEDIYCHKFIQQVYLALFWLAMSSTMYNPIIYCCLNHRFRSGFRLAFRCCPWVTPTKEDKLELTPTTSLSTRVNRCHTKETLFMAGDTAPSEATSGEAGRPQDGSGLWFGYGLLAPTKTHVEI

Sequence of Sodium-dependent dopamine transporter (Q01959 whole entry): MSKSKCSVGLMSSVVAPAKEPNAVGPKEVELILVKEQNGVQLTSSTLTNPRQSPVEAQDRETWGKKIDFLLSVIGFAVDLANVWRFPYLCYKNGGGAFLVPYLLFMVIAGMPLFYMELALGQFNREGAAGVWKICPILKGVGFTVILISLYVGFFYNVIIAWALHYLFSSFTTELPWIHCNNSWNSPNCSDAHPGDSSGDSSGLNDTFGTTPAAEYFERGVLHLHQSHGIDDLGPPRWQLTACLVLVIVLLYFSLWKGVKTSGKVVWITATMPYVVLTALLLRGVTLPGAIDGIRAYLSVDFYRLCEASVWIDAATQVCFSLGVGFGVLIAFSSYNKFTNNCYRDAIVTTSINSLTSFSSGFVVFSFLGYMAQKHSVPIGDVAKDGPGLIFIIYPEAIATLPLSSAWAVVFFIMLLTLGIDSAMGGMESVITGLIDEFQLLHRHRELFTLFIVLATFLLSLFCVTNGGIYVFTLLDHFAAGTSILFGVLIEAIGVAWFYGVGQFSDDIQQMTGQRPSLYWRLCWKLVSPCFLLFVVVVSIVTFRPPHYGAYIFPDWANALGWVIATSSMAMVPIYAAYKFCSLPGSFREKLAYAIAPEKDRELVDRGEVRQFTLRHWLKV

| Compound | IC50 [1] | IC50 ([2]; sf9) | IC50 ([3]; hek293) | IC50 (Substance-K receptor) | other results |
| --- | --- | --- | --- | --- | --- |
| CC(C)(C)NC(=O)[C@H]1CC[C@H]2[C@@H]3CC[C@H]4NC(=O)C=C[C@]4(C)[C@H]3CC[C@]12C [FINASTERIDE] | Not Active | Not Active | Not Active | Not Active | – |
| CC[C@H](C)[C@H]1O[C@]2(C=C[C@@H]1C)C[C@@H]1C[C@@H](C/C=C(\C)[C@@H](O[C@H]3C[C@H](OC)[C@@H](O[C@H]4C[C@H](OC)[C@@H](O)[C@H](C)O4)[C@H](C)O3)[C@@H](C)/C=C/C=C3\CO[C@@H]4[C@H](O)C(C)=C[C@@H](C(=O)O1)[C@]34O)O2.CO[C@H]1C[C@H](O[C@H]2[C@H](C)O[C@@H](O[C@@H]3/C(C)=C/C[C@@H]4C[C@@H](C[C@]5(C=C[C@H](C)[C@@H](C(C)C)O5)O4)OC(=O)[C@@H]4C=C(C)[C@@H](O)[C@H]5OC/C(=C\C=C\[C@@H]3C)[C@]54O)C[C@@H]2OC)O[C@@H](C)[C@@H]1O [ABAMECTIN] | Not Active | Not Active | Not Active | Not Active | – |
| Cn1c(=O)c2[nH]cnc2n(C)c1=O.Cn1c(=O)c2[nH]cnc2n(C)c1=O.NCCN [AMINOPHYLLINE] | Not Active | Not Active | Not Active | Not Active | – |
| C#C[C@]1(OC(C)=O)CC[C@H]2[C@@H]3CCC4=C[C@@H](OC(C)=O)CC[C@@H]4[C@H]3CC[C@@]21C [ETHYNODIOL DIACETATE] | Not Active | Not Active | Not Active | Not Active | – |
| CN/C(=N\CCSCc1nc[nH]c1C)NC#N [CIMETIDINE] | Not Active | Not Active | Not Active | Not Active | – |
| COc1ccc2c3c1O[C@H]1C[C@@H](O)C=C[C@@]31CCN(C)C2 [GALANTAMINE] | Not Active | Not Active | Not Active | Not Active | – |
| OC(CCCN1CCCCC1)(c1ccccc1)c1ccccc1 [DIPHENIDOL] | Not Active | Not Active | Not Active | Not Active | – |
| CCC(=O)O[C@]1(C(=O)CCl)[C@@H](C)C[C@H]2[C@@H]3CCC4=CC(=O)C=C[C@]4(C)[C@@]3(F)[C@@H](O)C[C@@]21C [CLOBETASOL PROPIONATE] | Not Active | Not Active | Not Active | Not Active | – |
| CCCN(CCC)S(=O)(=O)c1ccc(C(=O)O)cc1 [PROBENECID] | Not Active | Not Active | Not Active | Not Active | – |
| O=C(O)CCNC(=O)c1ccccc1 [BETAMIPRON] | Not Active | Not Active | Not Active | Not Active | – |
| C[C@H]1O[C@@H](n2cc(F)c(=O)[nH]c2=O)[C@H](O)[C@@H]1O [DOXIFLURIDINE] | Not Active | Not Active | Not Active | Not Active | – |
| CC[C@H]1CN2CCc3cc(OC)c(OC)cc3[C@@H]2C[C@@H]1C[C@H]1NCCc2cc(OC)c(OC)cc21 [EMETINE] | Not Active | – | Not Active | Not Active | IC50 ([2]; read-out: IC50): 182 nM; Ki ([2]; read-out: Ki): 26 nM |
| O=c1cnn([C@@H]2O[C@H](CO)[C@@H](O)[C@H]2O)c(=O)[nH]1 [6-AZAURIDINE] | Not Active | Not Active | Not Active | Not Active | – |
| COC(=O)CCc1ccc(OCC(O)CNC(C)C)cc1 (centres undefined) [ESMOLOL] | Not Active | Not Active | Not Active | Not Active | – |
| C[C@@H]1O[C@@H](O[C@@H]2C=C3CC[C@@H]4[C@H](CC[C@]5(C)[C@@H](c6ccc(=O)oc6)CC[C@]45O)[C@@]3(C)CC2)[C@H](O)[C@H](O)[C@H]1O [PROSCILLARIDIN] | Not Active | Not Active | Not Active | Not Active | – |
| NYSTATIN | Not Active | Not Active | Not Active | Not Active | Ki [1]: Not Active; Ki ([2]; sf9): Not Active; Ki ([3]; hek293): Not Active; Ki (Substance-K receptor): Not Active |

| Compound | IC50 [1] | IC50 ([2]; sf9) | IC50 ([3]; hek293) | IC50 (Substance-K receptor) | other results |
| --- | --- | --- | --- | --- | --- |
| C[C@@H]1C[C@H]2[C@@H]3CCC4=CC(=O)C=C[C@]4(C)[C@@]3(F)[C@@H](O)C[C@]2(C)[C@@]1(O)C(=O)CO [DEXAMETHASONE] | Not Active | Not Active | Not Active | Not Active | – |
| O=C(c1ccccc1C(F)(F)F)N1CCC(Cc2ccccc2)CC1 | Not Active | Not Active | Not Active | Not Active | – |
| Brc1c(NC2=NCCN2)ccc2nccnc12 [BRIMONIDINE] | Not Active | Not Active | – | Not Active | IC50 ([3]; read-out: IC50): 1720 nM; Ki ([3]; read-out: Ki): 846 nM |
| CC1(C)S[C@@H]2[C@H](NC(=O)[C@H](N)c3ccccc3)C(=O)N2[C@H]1C(=O)O [AMPICILLIN] | Not Active | Not Active | Not Active | Not Active | – |
| C[n+]1ccccc1/C=N/O.[Cl-] [PRALIDOXIME CHLORIDE] | Not Active | Not Active | Not Active | Not Active | – |
| Cc1c(OCC(F)(F)F)ccnc1C[S+]([O-])c1nc2ccccc2[nH]1 (centres undefined) [LANSOPRAZOLE] | Not Active | Not Active | Not Active | Not Active | – |
| CN1[C@@H]2CC[C@H]1C[C@@H](OC(=O)C(CO)c1ccccc1)C2 (some centres undefined) [ATROPINE] | Not Active | Not Active | – | Not Active | Ki [3]: 666 nM; IC50 ([3]; read-out: IC50): 1350 nM |
| COc1ccc(C2C(=O)c3ccccc3C2=O)cc1 [ANISINDIONE] | Not Active | Not Active | Not Active | Not Active | – |
| COC(=O)Nc1nc2ccc([S+]([O-])c3ccccc3)cc2[nH]1 (centres undefined) [OXFENDAZOLE] | Not Active | Not Active | Not Active | Not Active | – |
| CC(C(=O)O)c1ccc2oc(-c3ccc(Cl)cc3)nc2c1 (centres undefined) [BENOXAPROFEN] | Not Active | Not Active | Not Active | Not Active | – |
| Cc1cc2c(OCC(CNC(C)(C)C)OC(=O)c3ccccc3)cccc2[nH]1 (centres undefined) [BOPINDOLOL] | Not Active | Not Active | Not Active | Not Active | – |
| Nc1ccn([C@@H]2O[C@H](CO)[C@@H](O)C2(F)F)c(=O)n1 [GEMCITABINE] | Not Active | Not Active | Not Active | Not Active | – |
| COc1ccc2[nH]cc(CCNC(C)=O)c2c1 [MELATONIN] | Not Active | Not Active | Not Active | Not Active | – |
| GADOPENTETATE DIMEGLUMINE | Not Active | Not Active | Not Active | Not Active | Ki [1]: Not Active; Ki ([2]; sf9): Not Active; Ki ([3]; hek293): Not Active; Ki (Substance-K receptor): Not Active |
| C#CC1(O)CC[C@H]2[C@@H]3CCC4=CC(=O)CC[C@@H]4[C@H]3CC[C@@]21CC (some centres undefined) [NORGESTREL] | Not Active | Not Active | Not Active | Not Active | – |
| C[n+]1ccc(-c2cc[n+](C)cc2)cc1.[Cl-].[Cl-] [PARAQUAT DICHLORIDE] | Not Active | Not Active | Not Active | Not Active | – |
